This is an account of results in ChEMBL document CHEMBL5505991, “Novel sulfonamide-indolinone hybrids targeting mitochondrial respiration of breast cancer cells” (Eur J Med Chem, 2024).

The inhibition is the share of the control response that was lost under treatment. The term GI50 denotes the concentration that inhibits growth by half. The Ki is a dissociation constant, usually derived from enzyme kinetics or from competition with a known ligand. For orientation: IC50 means the point on the concentration scale where inhibition reaches its midpoint.

In data set [1] the target is T1, Aurora kinase B (Homo sapiens, UniProt Q96GD4). The data set can be described thus: Inhibition of Aurora B (unknown origin) at 100 nM by Z-LYTE assay relative to control.
T1 sequence (Q96GD4 whole entry): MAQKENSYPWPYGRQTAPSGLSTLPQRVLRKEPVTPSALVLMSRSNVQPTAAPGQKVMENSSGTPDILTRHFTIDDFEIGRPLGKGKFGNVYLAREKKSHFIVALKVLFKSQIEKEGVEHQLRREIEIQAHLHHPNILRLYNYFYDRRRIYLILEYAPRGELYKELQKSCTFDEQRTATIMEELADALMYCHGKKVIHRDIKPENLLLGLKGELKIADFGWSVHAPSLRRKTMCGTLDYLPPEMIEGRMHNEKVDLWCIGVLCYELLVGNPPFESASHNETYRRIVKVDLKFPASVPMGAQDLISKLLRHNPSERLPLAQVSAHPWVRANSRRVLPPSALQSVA
The subject of data set [2] is MDA-MB-468. The data set can be described thus: Growth inhibition of human MDA-MB-468 cells incubated for 72 hrs by SRB assay. It counts as functional. In general terms: The SRB assay estimates cell density from bound dye.
Data set [3] relates to MCF7. The data set can be described thus: Growth inhibition of human MCF7 cells incubated for 72 hrs by SRB assay. It is filed as functional.
Data set [4] deals with T47D. The data set can be described thus: Growth inhibition of human T47D cells incubated for 72 hrs by SRB assay. It counts as functional.
Data set [5] relates to MDA-MB-468. The data set can be described thus: Antiproliferative activity against human MDA-MB-468 cells assessed as cell growth at 10 uM incubated for 72 hrs by SRB assay relative to control. Conditions: read-out: Activity. It is filed as functional.
Data set [6] relates to T47D. The data set can be described thus: Antiproliferative activity against human T47D cells assessed as cell growth at 10 uM incubated for 72 hrs by SRB assay relative to control. It counts as functional. Conditions: read-out: Activity.
For data set [7], the system named is MCF7. The data set can be described thus: Antiproliferative activity against human MCF7 cells assessed as cell growth at 10 uM incubated for 72 hrs by SRB assay relative to control. It is filed as functional. Conditions: read-out: Activity.
Data set [8] has as its target T1, Aurora kinase B. The data set can be described thus: Binding affinity to Aurora B (unknown origin) assessed as inhibition constant.
The subject of data set [9] is MCF7. The data set can be described thus: Inhibition of mitochondrial respiration in human MCF7 cells assessed as reduction in oxygen consumption rate at 20 uM incubated for 15 mins in presence of complex IV. It is filed as functional, cell-based.
The test system of data set [10] is MCF7. The data set can be described thus: Inhibition of mitochondrial induced ROS production in human MCF7 cells assessed as reduction in H2O2 production rate at 20 uM incubated for 15 mins in presence of complex II by Amplex ultra red and horseradish peroxidase based fluorescence assay. It counts as functional, cell-based.
The subject of data set [11] is MCF7. The data set can be described thus: Inhibition of mitochondrial respiration in human MCF7 cells assessed as reduction in oxygen consumption rate at 20 uM incubated for 15 mins. It is filed as functional, cell-based.
For data set [12], the system named is MCF7. The data set can be described thus: Inhibition of mitochondrial respiration in human MCF7 cells assessed as reduction in oxygen consumption rate at 20 uM incubated for 15 mins in presence of complex I. It is filed as functional, cell-based.
Data set [13] relates to MCF7. The data set can be described thus: Induction of cell cycle arrest in human MCF7 cells assessed as accumulation of cells at G0/G1 phase at 5 to 7 uM measured after 24 hrs by PI staining based flow cytometry analysis. Conditions: dose 5-7 µM. It is filed as functional. For orientation: A flow cytometer gives signals particle by particle.
A further data set relates to BNL. The data set can be described thus: Cytotoxicity against mouse BNL cells at upto 100 uM measured after 72 hrs by SRB assay. It counts as toxicity, cell-based.
Data set [14] has as its system MCF7. The data set can be described thus: Inhibition of mitochondrial respiration in human MCF7 cells assessed as reduction in oxygen consumption rate at 20 uM incubated for 15 mins in presence of complex II. It counts as functional, cell-based.
A further data set concerns H9c2. The data set can be described thus: Cytotoxicity against rat H9c2 cells at upto 100 uM measured after 72 hrs by SRB assay. It counts as toxicity, cell-based. Conditions: h9c2, 72 h.
In data set [15] the target is T1, Aurora kinase B. The data set can be described thus: Inhibition of Aurora B (unknown origin) at 100 nM relative to control.
Data set [16] has as its target T1, Aurora kinase B. The data set can be described thus: Inhibition of Aurora B (unknown origin).

Calls of active or inactive are those of the source. No cut-off for these calls is given here.

Regarding `O=C1Nc2cc(-c3ccc(NS(=O)(=O)c4ccc5ccccc5c4)cc3)ccc2/C1=C/c1ccc[nH]1`, the inhibition against Aurora kinase B [1] was 20%. The concentration for 50% growth inhibition (GI50) worked out at 25.4 nM with MDA-MB-468 [2], 33.6 nM with MCF7 [3] and 47.1 nM in the data set on T47D [4]. For the same compound, the growth at 10 µM is -80.8% with MDA-MB-468 [5], -16.7% in the data set with T47D [6] and -51.9% in the data set with MCF7 [7].
The compound `O=C1Nc2cc(-c3ccc(NS(=O)(=O)c4ccc(Br)cc4)cc3)ccc2/C1=C/c1ccc[nH]1` yielded an inhibition at Aurora kinase B [1] of 32%. The concentration for 50% growth inhibition (GI50) in the data set on MDA-MB-468 [2] amounted to 25.4 nM; in the data set with MCF7 [3], 31.6 nM; with T47D [4] it was 61.3 nM. Moreover, the results for the growth at 10 µM with MDA-MB-468 [5], in the data set on T47D [6] and with MCF7 [7] were -66.9%, 9.33% and -77.4%, respectively.
On to `O=C1Nc2cc(-c3ccc(O)cc3)ccc2/C1=C/c1ccc[nH]1`, for which the Ki at Aurora kinase B [8] was 19.9 nM.
For the compound `CC(=O)Nc1ccc(S(=O)(=O)Nc2ccc(-c3ccc4c(c3)NC(=O)/C4=C\c3ccc[nH]3)cc2)cc1`, the inhibition at Aurora kinase B [1] was 46%. The growth at 10 µM was -7.1% in the data set with MDA-MB-468 [5], 20.7% with T47D [6] and 14.3% in the data set on MCF7 [7].
Regarding `O=C1Nc2cc(-c3ccc(NS(=O)(=O)c4cccc(Br)c4)cc3)ccc2/C1=C/c1ccc[nH]1`, on Aurora kinase B [1], the inhibition came out at 38%. Besides, the GI50 in the data set on MDA-MB-468 [2] was 28.6 nM; in the data set with MCF7 [3], 30.2 nM; in the data set on T47D [4], 41.7 nM. Moreover, the growth at 10 µM with MDA-MB-468 [5] is -44%; in the data set with T47D [6], 15.6%; with MCF7 [7] it was -18.4%.
Consider `COc1ccc(S(=O)(=O)Nc2ccc(-c3ccc4c(c3)NC(=O)/C4=C\c3ccc[nH]3)cc2)cc1OC`, for which the inhibition on Aurora kinase B [1] came out at 33%. Further, the figures for the GI50 in the data set on MDA-MB-468 [2], in the data set with MCF7 [3] and in the data set with T47D [4] were 30.9 nM, 47.7 nM and 28.5 nM, respectively. Besides, the growth at 10 µM in the data set on MDA-MB-468 [5] is -56.2%; in the data set on T47D [6], -21%; with MCF7 [7] it was -39%.
Regarding `CCN(CC)CCNC(=O)c1c(C)[nH]c(/C=C2\C(=O)Nc3cc(-c4ccc(NS(=O)(=O)c5ccc(F)c(Cl)c5)cc4)ccc32)c1C`, the inhibition entry with MCF7 [9] is “inactive”. Further, at Aurora kinase B [1], the inhibition amounted to 90%. Also, the values for the growth at 10 µM in the data set with MDA-MB-468 [5], with T47D [6] and in the data set with MCF7 [7] were -90.5%, -49.1% and -85.2%, respectively. Besides, the inhibition result in the data set with MCF7 [10], in the data set on MCF7 [11], in the data set on MCF7 [12] and with MCF7 [14] was “Active” each time. Further, in the data set on MCF7 [13], the outcome was Active. For the same compound, the Activity entry in the data set on BNL and with H9c2 was “Non-Toxic” in each case.
With `O=C1Nc2cc(-c3ccc(NS(=O)(=O)c4ccc(-c5ccccc5)cc4)cc3)ccc2/C1=C/c1ccc[nH]1`, the inhibition at Aurora kinase B [1] was found to be 20%. The values for the concentration for 50% growth inhibition (GI50) with MDA-MB-468 [2], in the data set on MCF7 [3] and in the data set with T47D [4] were 40.2 nM, 74.6 nM and 136 nM, respectively. Also, the growth at 10 µM in the data set with MDA-MB-468 [5] was -52.5%; in the data set on T47D [6], 3.17%; in the data set on MCF7 [7] it was -25.2%.
As for `O=C1Nc2cc(-c3ccc(NS(=O)(=O)c4ccc([N+](=O)[O-])cc4)cc3)ccc2/C1=C/c1ccc[nH]1`, the inhibition at Aurora kinase B [1] stood at 49%. Further, the 50% growth inhibitory concentration (GI50) worked out at 778 nM with MDA-MB-468 [2], 1730 nM with MCF7 [3] and 4770 nM with T47D [4]. The growth at 10 µM is -29.6% with MDA-MB-468 [5], 15.9% with T47D [6] and -23.6% with MCF7 [7].
`O=C1Nc2cc(-c3ccc(NS(=O)(=O)c4ccccc4)cc3)ccc2/C1=C/c1ccc[nH]1` yielded an inhibition at Aurora kinase B [15] of 66%.
`O=C(Nc1ccc(-c2ccc3c(c2)NC(=O)/C3=C\c2ccc[nH]2)cc1)NC1CC1` had an IC50 at Aurora kinase B [16] of 10.5 nM.
With `Cc1ccc(S(=O)(=O)Nc2ccc(-c3ccc4c(c3)NC(=O)/C4=C\c3ccc[nH]3)cc2)cc1`, the inhibition against Aurora kinase B [1] turned out to be 23%. Also, the growth at 10 µM was -25.8% with MDA-MB-468 [5], 18.8% with T47D [6] and 3.35% in the data set on MCF7 [7].
Compound `O=C1Nc2cc(-c3ccc(NS(=O)(=O)c4ccc(C(F)(F)F)cc4)cc3)ccc2/C1=C/c1ccc[nH]1` showed an inhibition at Aurora kinase B [1] of 18%. The GI50 in the data set on MDA-MB-468 [2] was 31.1 nM; with MCF7 [3], 81.8 nM; in the data set on T47D [4], 230 nM. In addition, the growth at 10 µM with MDA-MB-468 [5] was -26.2%; in the data set on T47D [6], 18.1%; with MCF7 [7], 0.78%.
Consider `O=C1Nc2cc(-c3ccc(NS(=O)(=O)c4cccc(Cl)c4)cc3)ccc2/C1=C/c1ccc[nH]1`, for which, on Aurora kinase B [1], the inhibition is 43%. Moreover, the growth at 10 µM in the data set on MDA-MB-468 [5] is -29.3%; with T47D [6] it was 12.1%; in the data set on MCF7 [7] it was -6.08%.
For `Cc1[nH]c(/C=C2\C(=O)Nc3cc(-c4ccc(NS(=O)(=O)c5ccc(F)c(Cl)c5)cc4)ccc32)c(C)c1NS(C)(=O)=O` the same measures were 53%, 8.19%, 17.9% and 4.18%.
